Test results from US20260200939A1, “MOLECULAR GLUE DEGRADER COMPOUNDS AND USES THEREOF” (Novartis AG, priority 2022, published 2026).

Legend:
BRD4 short = target: T1, BRD4 short (Homo sapiens, UniProt O60885); experiment: BRD4 (short) degradation assay, Western blotting; type: cell-based
T1 construct: endogenous in cells; host or cells: HEK293T
Method: (§1) C33A cells were purchased from American Type Culture Collection (ATCC) and were cultured in Dulbecco's Modified Eagle Medium (DMEM) containing 10% (v/v) fetal bovine serum (FBS) and maintained at 37° C. with 5% CO2. 22RV1 cells were purchased from the ATCC and were cultured in RPMI-1640 Medium containing 10% (v/v) FBS and maintained at 37° C. with 5% CO2. HEK293T cells were obtained from the UC Berkeley Cell Culture Facility and were cultured in DMEM containing 10% (v/v) FBS and maintained at 37° C. with 5% CO2. K562 cells were obtained from the UC Berkeley Cell Culture Facility and were cultured in Iscove's Modified Dulbecco's Medium (IMDM) containing 10% (v/v) FBS and maintained at 37° C. with 5% CO2. MV-4-11 cells were obtained from the ATCC and were cultured in IMDM containing 10% (v/v) FBS and maintained at 37° C. with 5% CO2. A549 cells were obtained from the ATCC and were cultured in F-12K Medium containing 10% (v/v) FBS and maintained at 37° C. with 5% CO2. Mino cells were obtained from the ATCC and were cultured in RPMI-1640 Medium containing 10% (v/v) FBS and maintained at 37° C. with 5% CO2. LNCaP cells were obtained from the ATCC and were cultured in RPMI-1640 Medium containing 10% (v/v) FBS and maintained at 37° C. with 5% CO2. Unless otherwise specified, all cell culture materials were purchased from Gibco. It is not known whether HEK293T cells are from male or female origin.
(§2) Cells were washed twice with cold PBS, scraped, and pelleted by centrifugation (700 g, 5 min, 4° C.). Pellets were resuspended in PBS, sonicated, clarified by centrifugation (12,000 g, 10 min, 4° C.), and lysate was transferred to new low-adhesion microcentrifuge tubes. Proteome concentrations were determined using BCA assay and lysate was diluted to appropriate working concentrations.
(§3) Proteins were resolved by SDS/PAGE and transferred to nitrocellulose membranes using the Trans-Blot Turbo transfer system (Bio-Rad). Membranes were blocked with 5% BSA in Tris-buffered saline containing Tween 20 (TBS-T) solution for 30 min at RT, washed in TBS-T, and probed with primary antibody diluted in recommended diluent per manufacturer overnight at 4° C. After 3 washes with TBS-T, the membranes were incubated in the dark with IR680- or IR800-conjugated secondary antibodies at 1:10,000 dilution in 5% BSA in TBS-T at RT for 1 h. After 3 additional washes with TBST, blots were visualized using an Odyssey Li-Cor fluorescent scanner. The membranes were stripped using ReBlot Plus Strong Antibody Stripping Solution (EMD Millipore) when additional primary antibody incubations were performed. Antibodies used in this study were CDK4 (Abcam ab108357), Vinculin (Abcam ab129002), GAPDH (Cell Signaling Technology 14C10), RNF126 (Santa Cruz Biotechnology sc-376005), BRD4 (Abcam ab128874), Beta Actin (Cell Signaling Technology 13E5), PDE5 (Abcam ab259945), AR-V7 (Abcam ab273500), c-Abl (Santa Cruz Biotechnology sc-23), SMARCA2 (Abcam ab240648), LRRK2 (Abcam ab133474), BTK (Cell Signaling Technology D3H5), Androgen Receptor (Abcam ab133273).

BRD4 long = target: T2, BRD4 long (Homo sapiens, UniProt O60885); experiment: BRD4 (long) degradation assay, Western blotting; type: cell-based
T2 construct: endogenous in cells; host or cells: HEK293T
Method: as §1, §2, §3

[1] = second value of cell (long/short)
[2] = first value of cell (long/short)

Compound	DC50 (BRD4 short; [1]) [nM]	DC50 (BRD4 long; [2]) [nM]	DC50 (BRD4 short; second value of cell, range with lower bound in nM and upper bound in μM) [nM]	DC50 (BRD4 long; first value of cell, range with lower bound in nM and upper bound in μM) [nM]
COc1ccc(C(=O)/C(C)=C/C(=O)N2CCN(C(=O)C[C@@H]3N=C(c4ccc(Cl)cc4)c4c(sc(C)c4C)-n4c(C)nnc43)CC2)cc1 [Compound 139, (S,E)-4-(4-(2-(4-(4-chlorophenyl)-2,3,9-trimethyl-6H-thieno[3,2-f][1,2,4]triazolo[4,3-a][1,4]diazepin-6-yl)acetyl)piperazin-1-yl)-1-(4-methoxyphenyl)-2-methylbut-2-ene-1,4-dione]	> 1000	> 1000		
Cc1sc2c(c1C)C(c1ccc(Cl)cc1)=N[C@@H](CC(=O)N1CCN(C(=O)/C=C/C(=O)c3ccccc3)CC1)c1nnc(C)n1-2 [Compound 140, (S,E)-1-(4-(2-(4-(4-chlorophenyl)-2,3,9-trimethyl-6H-thieno[3,2-f][1,2,4]triazolo[4,3-a][1,4]diazepin-6-yl)acetyl)piperazin-1-yl)-4-phenylbut-2-ene-1,4-dione]	< 100	< 100		
COc1ccc(C(=O)/C=C(\C)C(=O)N2CCN(C(=O)C[C@@H]3N=C(c4ccc(Cl)cc4)c4c(sc(C)c4C)-n4c(C)nnc43)CC2)cc1 [Compound 141, (S,E)-1-(4-(2-(4-(4-chlorophenyl)-2,3,9-trimethyl-6H-thieno[3,2-f][1,2,4]triazolo[4,3-a][1,4]diazepin-6-yl)acetyl)piperazin-1-yl)-4-(4-methoxyphenyl)-2-methylbut-2-ene-1,4-dione]	> 1000	> 1000		
COc1ccccc1C(=O)/C=C/C(=O)N1CCN(C(=O)C[C@@H]2N=C(c3ccc(Cl)cc3)c3c(sc(C)c3C)-n3c(C)nnc32)CC1 [Compound 142, (S,E)-1-(4-(2-(4-(4-chlorophenyl)-2,3,9-trimethyl-6H-thieno[3,2-f][1,2,4]triazolo[4,3-a][1,4]diazepin-6-yl)acetyl)piperazin-1-yl)-4-(2-methoxyphenyl)but-2-ene-1,4-dione]	< 100	< 100		
COc1cccc(C(=O)/C=C/C(=O)N2CCN(C(=O)C[C@@H]3N=C(c4ccc(Cl)cc4)c4c(sc(C)c4C)-n4c(C)nnc43)CC2)c1 [Compound 143, (S,E)-1-(4-(2-(4-(4-chlorophenyl)-2,3,9-trimethyl-6H-thieno[3,2-f][1,2,4]triazolo[4,3-a][1,4]diazepin-6-yl)acetyl)piperazin-1-yl)-4-(3-methoxyphenyl)but-2-ene-1,4-dione]	< 100	< 100		
COc1ccc(C(=O)/C=C(\C#N)C(=O)N2CCN(C(=O)C[C@@H]3N=C(c4ccc(Cl)cc4)c4c(sc(C)c4C)-n4c(C)nnc43)CC2)cc1 [Compound 144, (S,E)-2-(4-(2-(4-(4-chlorophenyl)-2,3,9-trimethyl-6H-thieno[3,2-f][1,2,4]triazolo[4,3-a][1,4]diazepin-6-yl)acetyl)piperazine-1-carbonyl)-4-(4-methoxyphenyl)-4-oxobut-2-enenitrile]	> 1000	> 1000		
Cc1sc2c(c1C)C(c1ccc(Cl)cc1)=N[C@@H](CC(=O)N1CCN(C(=O)/C=C/C(=O)c3ccc(F)cc3)CC1)c1nnc(C)n1-2 [Compound 202, (S,E)-1-(4-(2-(4-(4-chlorophenyl)-2,3,9-trimethyl-6H-thieno[3,2-f][1,2,4]triazolo[4,3-a][1,4]diazepin-6-yl)acetyl)piperazin-1-yl)-4-(4-fluorophenyl)but-2-ene-1,4-dione]	< 100	< 100		
Cc1sc2c(c1C)C(c1ccc(Cl)cc1)=N[C@@H](CC(=O)N1CCN(C(=O)/C=C/C(=O)c3ccc4c(c3)NC(=O)CO4)CC1)c1nnc(C)n1-2 [Compound 203, (S,E)-1-(4-(2-(4-(4-chlorophenyl)-2,3,9-trimethyl-6H-thieno[3,2-f][1,2,4]triazolo[4,3-a][1,4]diazepin-6-yl)acetyl)piperazin-1-yl)-4-(3-oxo-3,4-dihydro-2H-benzo[b][1,4]oxazin-6-yl)but-2-ene-1,4-dione]	10 to 100	10 to 100		
Cc1sc2c(c1C)C(c1ccc(Cl)cc1)=N[C@@H](CC(=O)N[C@H]1C[C@H](NC(=O)/C=C/C(=O)c3ccccc3)C1)c1nnc(C)n1-2 [Compound 204, (E)-N-((1S,3r)-3-(2-((S)-4-(4-chlorophenyl)-2,3,9-trimethyl-6H-thieno[3,2-f][1,2,4]triazolo[4,3-a][1,4]diazepin-6-yl)acetamido)cyclobutyl)-4-oxo-4-phenylbut-2-enamide]	10 to 100	10 to 100		
COc1ccc(C(=O)/C=C/C(=O)N2CCN(C(=O)C[C@@H]3N=C(c4ccc(Cl)cc4)c4c(sc(C)c4C)-n4c(C)nnc43)CC2)cn1 [Compound 205, (S,E)-1-(4-(2-(4-(4-chlorophenyl)-2,3,9-trimethyl-6H-thieno[3,2-f][1,2,4]triazolo[4,3-a][1,4]diazepin-6-yl)acetyl)piperazin-1-yl)-4-(6-methoxypyridin-3-yl)but-2-ene-1,4-dione]	10 to 100	10 to 100		
COc1ccc(C(=O)/C=C/C(=O)N[C@H]2C[C@@H](NC(=O)C[C@@H]3N=C(c4ccc(Cl)cc4)c4c(sc(C)c4C)-n4c(C)nnc43)C2)cn1 [Compound 206, (E)-N-((1R,3s)-3-(2-((S)-4-(4-chlorophenyl)-2,3,9-trimethyl-6H-thieno[3,2-f][1,2,4]triazolo[4,3-a][1,4]diazepin-6-yl)acetamido)cyclobutyl)-4-(6-methoxypyridin-3-yl)-4-oxobut-2-enamide]	10 to 100	10 to 100		
COc1ccc(C(=O)/C=C/C(=O)N[C@H]2C[C@H](NC(=O)C[C@@H]3N=C(c4ccc(Cl)cc4)c4c(sc(C)c4C)-n4c(C)nnc43)C2)cn1 [Compound 207, (E)-N-((1S,3r)-3-(2-((S)-4-(4-chlorophenyl)-2,3,9-trimethyl-6H-thieno[3,2-f][1,2,4]triazolo[4,3-a][1,4]diazepin-6-yl)acetamido)cyclobutyl)-4-(6-methoxypyridin-3-yl)-4-oxobut-2-enamide]	10 to 100	10 to 100		
Cc1sc2c(c1C)C(c1ccc(Cl)cc1)=N[C@@H](CC(=O)N1CCN(C(=O)/C=C/C(=O)c3ccc4c(c3)OCC4)CC1)c1nnc(C)n1-2 [Compound 208, (S,E)-1-(4-(2-(4-(4-chlorophenyl)-2,3,9-trimethyl-6H-thieno[3,2-f][1,2,4]triazolo[4,3-a][1,4]diazepin-6-yl)acetyl)piperazin-1-yl)-4-(2,3-dihydrobenzofuran-6-yl)but-2-ene-1,4-dione]	< 10	< 10		
Cc1sc2c(c1C)C(c1ccc(Cl)cc1)=N[C@@H](CC(=O)N[C@H]1C[C@H](NC(=O)/C=C/C(=O)c3ccc4c(c3)OCC4)C1)c1nnc(C)n1-2 [Compound 209, (E)-N-((1S,3r)-3-(2-((S)-4-(4-chlorophenyl)-2,3,9-trimethyl-6H-thieno[3,2-f][1,2,4]triazolo[4,3-a][1,4]diazepin-6-yl)acetamido)cyclobutyl)-4-(2,3-dihydrobenzofuran-6-yl)-4-oxobut-2-enamide]			100 to 1000	100 to 1000
Cc1sc2c(c1C)C(c1ccc(Cl)cc1)=N[C@@H](CC(=O)N1CCN(C(=O)/C=C/C(=O)c3ccc4c(c3)CCO4)CC1)c1nnc(C)n1-2 [Compound 210, (S,E)-1-(4-(2-(4-(4-chlorophenyl)-2,3,9-trimethyl-6H-thieno[3,2-f][1,2,4]triazolo[4,3-a][1,4]diazepin-6-yl)acetyl)piperazin-1-yl)-4-(2,3-dihydrobenzofuran-5-yl)but-2-ene-1,4-dione]	< 100	< 100		
Cc1sc2c(c1C)C(c1ccc(Cl)cc1)=N[C@@H](CC(=O)N[C@H]1C[C@H](NC(=O)/C=C/C(=O)N3CC4(COC4)C3)C1)c1nnc(C)n1-2 [Compound 254, (E)-N-((1S,3r)-3-(2-((S)-4-(4-chlorophenyl)-2,3,9-trimethyl-6H-thieno[3,2-f][1,2,4]triazolo[4,3-a][1,4]diazepin-6-yl)acetamido)cyclobutyl)-4-oxo-4-(2-oxa-6-azaspiro[3.3]heptan-6-yl)but-2-enamide]	> 5000			
